Assay results from patent US20100273701A1, “USE OF SALUSIN BETA ALONE OR IN COMBINATION WITH OCTREOTIDE AS A THERAPEUTIC AGENT” (priority 2007, published 2010).

Tests used:
Streptococcus pneumoniae = settings: 10 micrograms per ml; read visually
murine spleen cells = experiment: Th1/Th2 cytokine profiling assay; format: cell-based, Balb/c mice; settings: 10 micrograms per ml, Ovalbumin restimulation, 72 hours; for production of IL-2 in murine spleen cells (induced / increased by): combination 0.95 mole peptide 1 and 1.05 mole peptide 2
[1] = test system: hepatitis B virus (HBV) ayw strain; experiment: HBV experimental assay system, HepG2-2.2.15 cells, TaqMan PCR of secreted HBV DNA; format: cell-based; settings: 10 micrograms per ml, six days, combination 0.95 mole peptide 1 and 1.05 mole peptide 2
Human A549 cells = experiment: Apoptosis prevention assay (C2 ceramide, Annexin-5); format: cell-based; settings: 10 micrograms per ml, 30 min pretreatment, combination 0.95 mole peptide 1 and 1.05 mole peptide 2
[2] = test system: Primary Human endothelial cells (HUVEC); experiment: Endothelial cell migration assay; format: cell-based; settings: 10 micrograms per ml, 22 hours
HCMV strain AD169 = experiment: HCMV plaque formation assay in MRC-5 cells; settings: for inhibition of HCMV plaque formation as compared to the virus control experiment: 10 micrograms per ml, 7-10 days
HUVEC = experiment: Endothelial tube formation assay; format: cell-based, human; settings: 10 micrograms per ml; 20 hours; combination peptide 1: peptide 2 1.10 mole: 0.90 mole
From the text: Positive control was vehicle only. […] Raw data were expressed as average tubule […] ±standard deviation.

HIV-1III8 = format: cell-based

Compound	inhibition of the growth of Streptococcus pneumoniae (Streptococcus pneumoniae)	change of the production of IL-4 in murine spleen cells (murine spleen cells)	change of the production of IL-5 in murine spleen cells (murine spleen cells)	change of the production of TNF-alpha in murine spleen cells (murine spleen cells)	production of IFN-γ in murine spleen cells (decreased by) (murine spleen cells)	production of IL-2 in murine spleen cells (induced / increased by) (murine spleen cells) [%]	inhibition of HBV replication as compared to the virus control infection [1] [%]	reduction of the ceramide-induced apoptosis on human lung cells (Human A549 cells)	inhibition of the migration of human endothelial cells ([2]; combination peptide 1: peptide 2 1.10 mole: 0.90 mole) [%]	inhibition of HCMV plaque formation as compared to the virus control experiment (HCMV strain AD169)	inhibition of the tube formation of human endothelial cells (HUVEC) [%]	antiviral activity of positive control compounds (HIV-1) (HIV-1III8)	antiviral activity of positive control compound (HCMV) (HCMV strain AD169; positive control)	increase of the migration of endothelial cells [2] [%]
Ala-lle-Phe-Ile-Phe-Ile-Arg-Trp-Leu-Leu-Lys-Leu-Gly-His-His-Gly-Arg-Ala-Pro-Pro-OH [Peptide 1]	no inhibitory effects	did not significantly change	did not significantly change	did not significantly change	did not significantly change	156	44.6	28.2%	19	did not inhibit	23	–	–	–
CC(C)(C)NC(=O)[C@@H]1CN(Cc2cccnc2)CCN1C[C@@H](O)C[C@@H](Cc1ccccc1)C(=O)N[C@H]1c2ccccc2C[C@H]1O [indinavir]	–	–	–	–	–	–	–	–	–	–	–	expected levels of antiviral activity	–	–
Nc1nc(O)c2ncn(COC(CO)CO)c2n1 [Ganciclovir]	–	–	–	–	–	–	–	–	–	–	–	–	expected levels of antiviral activity	–
C[C@@H](O)[C@@H]1NC(=O)[C@H](CCCCN)NC(=O)[C@@H](Cc2c[nH]c3ccccc23)NC(=O)[C@H](Cc2ccccc2)NC(=O)[C@@H](NC(=O)[C@H](N)Cc2ccccc2)CSSC[C@@H](C(=O)N[C@H](CO)[C@@H](C)O)NC1=O [Peptide 2, D-Phe-Cys-Phe-D-Trp-Lys-Thr-Cys-L-threoninol]	100%	did not significantly change	did not significantly change	did not significantly change	44%	59.5	13.4	did not reduce	–	2.9%	8	–	–	24
Cc1cn([C@H]2C[C@H](N=[N+]=[N-])[C@@H](CO)O2)c(=O)[nH]c1=O [AZT]	–	–	–	–	–	–	–	–	–	–	–	expected levels of antiviral activity	–	–
